Results taken from PMC7530112 (European journal of medicinal chemistry, 2020).

Tests used:
[1] = test system: HIV-1NL4-3; assay: Anti-HIV-1 assay in TZM-GFP cells; details: for Inhibition% at 20 μM: 20 μM compound; for Inhibition% at 2 μM: 2 μM compound; for fold higher antiviral potency than PF74: EC50 compared with PF74
[2] = Microsomal stability assay, mouse liver microsomes; details: without Cobi, 1 μM compound, 0.5 mg/mL microsomal protein, NADPH
[3] = Microsomal stability assay, human liver microsomes; details: without Cobi; for Phase I metabolic stability t1/2, HLM: 1 μM compound, 0.5 mg/mL microsomal protein, NADPH

Molecule | Inhibition% at 20 μM [1] | Inhibition% at 2 μM [1] [%] | other results
2-(2-(2,4-Dioxo-1,3-diazaspiro[4.5]decan-3-yl)acetamido)-N,3-diphenylpropanamide [Compound 45] | −/0% |  | 
2-(2-(2,4-Dioxo-1,3-diazaspiro[4.5]decan-3-yl)acetamido)-N-(3-fluorophenyl)-N-methyl-3-phenylpropanamide [Compound 49] | 98% | 24 | 
2-(2-(2,4-Dioxo-1,3-diazaspiro[4.5]decan-3-yl)acetamido)-N-ethyl-N,3-diphenylpropanamide [Compound 53] | −/92% |  | 
2-(2-(2,4-Dioxo-1,3-diazaspiro[4.5]decan-3-yl)acetamido)-N-methyl-3-phenyl-N-(p-tolyl)propanamide [Compound 47] | −/92% |  | Phase I metabolic stability t1/2, MLM [2]: 1.2 min; Phase I metabolic stability t1/2, HLM [3]: 3.3 min
2-(2-(2,4-Dioxo-1,3-diazaspiro[4.5]decan-3-yl)acetamido)-N-methyl-N,3-diphenylpropanamide [Compound 44] | −/89% |  | 
2-(2-(2,5-Dioxo-3’,4’-dihydro-2’H-spiro[imidazolidine-4,1’-naphthalen]-1-yl)acetamido)-N,3-diphenylpropanamide [Compound 55] | −/22% |  | 
2-(2-(2,5-Dioxo-3’,4’-dihydro-2’H-spiro[imidazolidine-4,1’-naphthalen]-1-yl)acetamido)-N-(4-methoxyphenyl)-N-methyl-3-phenylpropanamide [Compound 56] | −/20% |  | 
2-(2-(2,5-Dioxo-3’,4’-dihydro-2’H-spiro[imidazolidine-4,1’-naphthalen]-1-yl)acetamido)-N-methyl-3-phenyl-N-(p-tolyl)propanamide [Compound 57] | −/41% |  | 
2-(2-(2,5-Dioxo-3’,4’-dihydro-2’H-spiro[imidazolidine-4,1’-naphthalen]-1-yl)acetamido)-N-methyl-N,3-diphenylpropanamide [Compound 54] | −/32% |  | 
COc1ccc(N(C)C(=O)C(Cc2ccccc2)NC(=O)CN2C(=O)NC3(CCCCC3)C2=O)cc1 (centres unmarked) [Compound 46, 2-(2-(2,4-Dioxo-1,3-diazaspiro[4.5]decan-3-yl)acetamido)-N-(4-methoxyphenyl)-N-methyl-3-phenylpropanamide] | −/93% |  | Phase I metabolic stability t1/2, MLM [2]: 0.7 min; fold improved half-life over PF74 in HLMs [3]: 7 to 10 fold; Phase I metabolic stability t1/2, HLM [3]: 5.2 min
CN(C(=O)C(Cc1ccccc1)NC(=O)CN1C(=O)NC2(CCCCC2)C1=O)c1ccc(F)cc1 (centres unmarked) [Compound 48, 2-(2-(2,4-Dioxo-1,3-diazaspiro[4.5]decan-3-yl)acetamido)-N-(4-fluorophenyl)-N-methyl-3-phenylpropanamide] | 99% | 9 | Phase I metabolic stability t1/2, MLM [2]: 0.5 min; Phase I metabolic stability t1/2, HLM [3]: 1.1 min
(2S)-2-(2-(4,7-Dimethyl-2-oxoindolin-3-yl)acetamido)-N-methyl-N,3-diphenylpropanamide [Compound 20] |  |  | Phase I metabolic stability t1/2, MLM [2]: 0.6 min; Phase I metabolic stability t1/2, HLM [3]: 1.5 min
(2S)-N-(3-Fluorophenyl)-N-methyl-2-(2-(7-methyl-2-oxoindolin-3-yl)acetamido)-3-phenylpropanamide [Compound 19] | 93% | 0 | 
(2S)-N-(4-Chlorophenyl)-N-methyl-2-(2-(7-methyl-2-oxoindolin-3-yl)acetamido)-3-phenylpropanamide [Compound 17] | 96% | 17 | 
(2S)-N-Methyl-2-(2-(7-methyl-2-oxoindolin-3-yl)acetamido)-N,3-diphenylpropanamide [Compound 16] | 91% | 0 | Phase I metabolic stability t1/2, MLM [2]: 1 min; fold improved half-life over PF74 in HLMs [3]: 7 to 10 fold; Phase I metabolic stability t1/2, HLM [3]: 7.0 min
(S)-2-(2-(1,3-Dimethyl-2,6-dioxo-1,2,3,6-tetrahydro-7H-purin-7-yl)acetamido)-N-(3-fluorophenyl)-N-methyl-3-phenylpropanamide [Compound 40] | 67% | 1 | 
(S)-2-(2-(1,3-Dimethyl-2,6-dioxo-1,2,3,6-tetrahydro-7H-purin-7-yl)acetamido)-N-(4-fluorophenyl)-N-methyl-3-phenylpropanamide [Compound 39] | 85% | 14 | 
(S)-2-(2-(1,3-Dimethyl-2,6-dioxo-1,2,3,6-tetrahydro-7H-purin-7-yl)acetamido)-N-ethyl-N,3-diphenylpropanamide [Compound 43] | 94% | 0 | 
(S)-2-(2-(1,3-Dimethyl-2,6-dioxo-1,2,3,6-tetrahydro-7H-purin-7-yl)acetamido)-N-methyl-3-phenyl-N-(p-tolyl)propanamide [Compound 38] | 98% | 18 | 
(S)-2-(2-(1,3-Dimethyl-2,6-dioxo-1,2,3,6-tetrahydro-7H-purin-7-yl)acetamido)-N-methyl-N,3-diphenylpropanamide [Compound 37] | 94% | 10 | Phase I metabolic stability t1/2, MLM [2]: 1.2 min; fold improved half-life over PF74 in HLMs [3]: 7 to 10 fold; Phase I metabolic stability t1/2, HLM [3]: 4.7 min

Molecule | Inhibition% at 20 μM [1] | Inhibition% at 2 μM [1] [%] | other results
(S)-2-(2-(5-Hydroxy-1H-indol-3-yl)acetamido)-N-methyl-3-phenyl-N-(p-tolyl)propanamide [Compound 9] |  |  | fold higher antiviral potency than PF74 [1]: up to 20 fold
(S)-2-(2-(5-Hydroxy-1H-indol-3-yl)acetamido)-N-methyl-N,3-diphenylpropanamide [Compound 8] |  |  | fold higher antiviral potency than PF74 [1]: up to 20 fold
(S)-2-(2-(5-Methoxy-1H-indol-3-yl)acetamido)-N-methyl-N,3-diphenylpropanamide [Compound 3] |  |  | Phase I metabolic stability t1/2, MLM [2]: 0.5 min; Phase I metabolic stability t1/2, HLM [3]: 1.2 min
(S)-N-(3-Chlorophenyl)-2-(2-(1,3-dimethyl-2,6-dioxo-1,2,3,6-tetrahydro-7H-purin-7-yl)acetamido)-N-methyl-3-phenylpropanamide [Compound 42] | 71% | 0 | 
(S)-N-(3-Chlorophenyl)-2-(2-(5-hydroxy-1H-indol-3-yl)acetamido)-N-methyl-3-phenylpropanamide [Compound 13] |  |  | fold potency drop on moving the Cl from 4 position to 3 ([1]; compared with 4-Cl analog 12): 10 fold
(S)-N-(3-Chlorophenyl)-N-methyl-2-(2-(naphthalen-1-yl)acetamido)-3-phenylpropanamide [Compound 34] | 96% | 53 | 
(S)-N-(3-Chlorophenyl)-N-methyl-2-(2-(naphthalen-2-yl)acetamido)-3-phenylpropanamide [Compound 28] | 94% | 0 | 
(S)-N-(3-Fluorophenyl)-N-methyl-2-(2-(naphthalen-1-yl)acetamido)-3-phenylpropanamide [Compound 35] | 97% | 44 | 
(S)-N-(3-Fluorophenyl)-N-methyl-2-(2-(naphthalen-2-yl)acetamido)-3-phenylpropanamide [Compound 29] | 97% | 0 | 
(S)-N-(4-Chlorophenyl)-2-(2-(1,3-dimethyl-2,6-dioxo-1,2,3,6-tetrahydro-7H-purin-7-yl)acetamido)-N-methyl-3-phenylpropanamide [Compound 41] | 96% | 6 | 
(S)-N-(4-Chlorophenyl)-2-(2-(5-hydroxy-1H-indol-3-yl)acetamido)-N-methyl-3-phenylpropanamide [Compound 12] |  |  | fold higher antiviral potency than PF74 [1]: up to 20 fold
(S)-N-(4-Chlorophenyl)-2-(2-(5-methoxy-1H-indol-3-yl)acetamido)-N-methyl-3-phenylpropanamide [Compound 7] |  |  | Phase I metabolic stability t1/2, MLM [2]: 0.6 min; Phase I metabolic stability t1/2, HLM [3]: 1.8 min
(S)-N-Ethyl-2-(2-(naphthalen-1-yl)acetamido)-N,3-diphenylpropanamide [Compound 36] | 98% | 53 | 
(S)-N-Ethyl-2-(2-(naphthalen-2-yl)acetamido)-N,3-diphenylpropanamide [Compound 30] | 97% | 46 | 
(S)-N-Methyl-2-(2-(naphthalen-1-yl)acetamido)-3-phenyl-N-(p-tolyl)propanamide [Compound 32] | 100% | 96 | 
(S)-N-Methyl-2-(2-(naphthalen-1-yl)acetamido)-N,3-diphenylpropanamide [Compound 31] | 100% | 66 | Phase I metabolic stability t1/2, MLM [2]: 0.5 min; Phase I metabolic stability t1/2, HLM [3]: 0.6 min
(S)-N-Methyl-2-(2-(naphthalen-2-yl)acetamido)-3-phenyl-N-(p-tolyl)propanamide [Compound 26] | 99% | 80 | 
(S)-N-Methyl-2-(2-(naphthalen-2-yl)acetamido)-N,3-diphenylpropanamide [Compound 25] | 98% | 40 | Phase I metabolic stability t1/2, MLM [2]: 0.5 min; Phase I metabolic stability t1/2, HLM [3]: 1.8 min
N-(3-Bromophenyl)-2-(2-(2,4-dioxo-1,3-diazaspiro[4.5]decan-3-yl)acetamido)-N-methyl-3-phenylpropanamide [Compound 52] | −/36% |  | 
N-(3-Chlorophenyl)-2-(2-(2,4-dioxo-1,3-diazaspiro[4.5]decan-3-yl)acetamido)-N-methyl-3-phenylpropanamide [Compound 51] | 98% | 9 | 
